# Measured values from patent publication US8242166B2, “C(10) ethyl ester and C(10) cyclopropyl ester substituted taxanes” (Florida State University Research Foundation, Inc., priority 2008, dated 2012).
# Read-outs that look alike come from different tables or passages of the source.
# Experiments:
# [1] = tested on: HT29 human tumor xenografts; assay: HT29 xenograft study e139 (Example 23); assay type: in vivo, nude mice
# HCT116 = assay: MTT cytotoxicity (IC50), HCT116; assay type: cell-based; details: Homo sapiens, HCT-116, 72 h, read-out: IN Vitro IC50 (nm) HCT116
# Procedure: (§1) All cell lines were maintained in RPMI-1640 tissue culture medium (TCM, supplemented with antibiotics and 10% fetal bovine serum) and cultured at 37° C. in humidified air containing 5% CO2. To assess the antiproliferative effects of the test compounds, 172 μL of tumor cell suspension (1.45×10^4 cells/ml) were added to each well of a 96-well plate and incubated for 24 h at 37° C. in 5% CO2 in air to allow cells to adhere. Seven 2-fold drug dilutions in TCM/DMSO were performed in triplicate in separate 96-well plates and 28 μL was transferred to the wells containing tumor cells (200 μL final volume/0.1% DMSO). Plates were incubated for 72 h and cell viability was determined by adding 50 μL of warm TCM containing 5 mg/mL MTT (3-[4,5-dimethylthiazol-2-yl]-2,5-diphenyltetrazolium bromide) to each well and incubating for 1 h at 37° C. Plates were processed and the absorbances of the resulting solutions were measured by a plate reader at 570 nm. […] (GraphPad Prism version 4.00 for Windows). Studies were conducted by Taxolog, Inc., Tallahassee, Fla.
# DLD-1 = assay: MTT cytotoxicity (IC50), DLD-1; assay type: cell-based; details: Homo sapiens
# Procedure: as §1, with “Compound 17932 was tested in four of these cell lines, while the remaining compounds were tested in all of these cell lines. All” for “All”
# PANC-1 = assay: MTT cytotoxicity (IC50), PANC-1; assay type: cell-based; details: Homo sapiens, 72 h, read-out: IN Vitro IC50 (nm) Panc
# Procedure: as §1, with “Compound 17932 was tested in four of these cell lines, while the remaining compounds were tested in all of these cell lines. All” for “All”
# HT29 = assay: MTT cytotoxicity (IC50), HT29; assay type: cell-based; details: Homo sapiens, HT-29, 72 h, read-out: IN Vitro IC50 (nm) HT29
# Procedure: as §1, with “Compound 17932 was tested in four of these cell lines, while the remaining compounds were tested in all of these cell lines. All” for “All”
# TK-10 = assay: MTT cytotoxicity (IC50), TK-10; assay type: cell-based; details: Homo sapiens, 72 h, read-out: IN Vitro IC50 (nm) TK10
# Procedure: as §1, with “Compound 17932 was tested in four of these cell lines, while the remaining compounds were tested in all of these cell lines. All” for “All”
# 786-0 = assay: MTT cytotoxicity (IC50), 786-0; assay type: cell-based; details: Homo sapiens
# Procedure: as §1, with “Compound 17932 was tested in four of these cell lines, while the remaining compounds were tested in all of these cell lines. All” for “All”
# SNB-19 = assay: MTT cytotoxicity (IC50), SNB-19; assay type: cell-based; details: Homo sapiens, 72 h, read-out: IN Vitro IC50 (nm) SNB19
# Procedure: as §1, with “Compound 17932 was tested in four of these cell lines, while the remaining compounds were tested in all of these cell lines. All” for “All”
# [2] = tested on: human HT29 colon carcinoma xenografts
# A375 = assay: MTT cytotoxicity (IC50), A375; assay type: cell-based; details: Homo sapiens, A-375
# Procedure: as §1, with “Compound 17932 was tested in four of these cell lines, while the remaining compounds were tested in all of these cell lines. All” for “All”
# OVCAR4 = assay: MTT cytotoxicity (IC50), OVCAR4; assay type: cell-based; details: Homo sapiens, OVCAR-4, 72 h, read-out: IN Vitro IC50 (nm) OVCAR4
# Procedure: as §1, with “Compound 17932 was tested in four of these cell lines, while the remaining compounds were tested in all of these cell lines. All” for “All”
# HOP-18 = assay: MTT cytotoxicity (IC50), HOP-18; assay type: cell-based; details: Homo sapiens, 72 h, read-out: IN Vitro IC50 (nm) HOP18
# Procedure: as §1, with “Compound 17932 was tested in four of these cell lines, while the remaining compounds were tested in all of these cell lines. All” for “All”
# A549 = assay: MTT cytotoxicity (IC50), A549; assay type: cell-based; details: Homo sapiens, 72 h, read-out: IN Vitro IC50 (nm) A549
# Procedure: as §1, with “Compound 17932 was tested in four of these cell lines, while the remaining compounds were tested in all of these cell lines. All” for “All”
# MALME-3 = assay: MTT cytotoxicity (IC50), MALME-3; assay type: cell-based; details: Homo sapiens, 72 h, read-out: IN Vitro IC50 (nm) Malme3
# Procedure: as §1, with “Compound 17932 was tested in four of these cell lines, while the remaining compounds were tested in all of these cell lines. All” for “All”
# SK-MEL-28 = assay: MTT cytotoxicity (IC50), SK-MEL-28; assay type: cell-based; details: Homo sapiens, 72 h, read-out: IN Vitro IC50 (nm) ske-mel28
# Procedure: as §1, with “Compound 17932 was tested in four of these cell lines, while the remaining compounds were tested in all of these cell lines. All” for “All”
# [3] = MTT, 72 h, read-out: IN Vitro IC50 (nm) DLD1
# [4] = Resistance MDR1+, read-out: DLD1 Colon (Table 4, quantity not named; IC50 values as Table 2)
compound,measurement,setting,value
CC(=O)O[C@@]12CO[C@@H]1C[C@H](O)[C@@]1(C)C(=O)[C@H](OC(=O)C3CC3)C3=C(C)[C@@H](OC(=O)[C@H](O)[C@@H](NC(=O)OC4CCCC4)c4cccs4)C[C@@](O)([C@@H](OC(=O)c4ccccc4)C12)C3(C)C (stereo partly shown) [Compound 17932],MTV (Day 61),[1]; 20 mg/kg i.v. q4d×4,78 mm^3
same,PR responses,"[1]; 20 mg/kg i.v. q4d×4, six mice",5
same,Day 51 mm^3 (tumor size),[1]; 20 mg/kg iv q4d × 4,99.7 mm^3
same,Day 54 mm^3 (tumor size),[1]; 20 mg/kg iv q4d × 4,109.4 mm^3
same,Max. BW Loss %; Day,[1]; 20 mg/kg iv q4d × 4,−19.3%; Day 16
same,Number of Death NTR,"[1]; 20 mg/kg iv q4d × 4, N=6",0
same,Number of Death TR,"[1]; 20 mg/kg iv q4d × 4, N=6",0
same,IC50,HCT116,0.6 nM
same,IC50,DLD-1; [3],1.4 nM
same,IC50,DLD-1; [4],1.4 nM
same,IC50,PANC-1,1.2 nM
same,IC50,HT29,0.9 nM
"CC(=O)O[C@H]1C(=O)[C@@]2(C)[C@H]([C@H](OC(=O)c3ccccc3)[C@]3(O)C[C@H](OC(=O)[C@H](O)[C@@H](NC(=O)c4ccccc4)c4ccccc4)C(C)=C1C3(C)C)[C@]1(OC(C)=O)CO[C@@H]1C[C@@H]2O [Paclitaxel, paclitaxel, reference compound]",IC50,TK-10,4.8 nM
same,IC50,"786-0; MTT, 72 h, read-out: IN Vitro IC50 (nm) 786-0",> 10 nM
same,IC50,"786-0; Resistance MDR1+, read-out: 786-0 Renal (Table 4, quantity not named; IC50 values as Table 2)",> 10 nM
same,IC50,SNB-19,6.1 nM
same,antitumor activity,[2]; 30 mg/kg q4d×4,relatively weak activity
same,D 38 TTE,"[2]; mouse, in vivo",27.5 ± 1.9 (6) days
same,Number of Death NTR,"[2]; mouse, in vivo",0
same,Number of Death TR,"[2]; mouse, in vivo",0
same,IC50,"A375; MTT, 72 h, read-out: IN Vitro IC50 (nm) A375",8 nM
same,IC50,"A375; Resistance MRP9, read-out: A375 Melanoma (Table 4, quantity not named; IC50 values as Table 2)",8 nM
same,IC50,DLD-1; [3],> 10 nM
same,IC50,DLD-1; [4],41 nM
same,IC50,OVCAR4,2.9 nM
same,IC50,PANC-1,4.1 nM
same,IC50,HT29,2.8 nM
same,IC50,HOP-18,7.2 nM
same,IC50,A549,3.8 nM
same,IC50,MALME-3,6.5 nM
same,IC50,SK-MEL-28,5.4 nM
